Results from patent US20190142971A1, “FORMULATION AND DELIVERY OF MODIFIED NUCLEOSIDE, NUCLEOTIDE, AND NUCLEIC ACID COMPOSITIONS” (ModernaTX, Inc., priority 2013, published 2019).

How the values were obtained:
Type in all cases: in vivo
[1] = test system: Sprague-Dawley rats; assay: Example 34: EPO mRNA in buffer IM in rats, serum EPO (Table 59); settings: dose 100 μg, 13 hours post injection
[2] = test system: C57/BL6 mice; assay: Example 34: EPO mRNA in buffer IM or SC in mice, serum EPO (Table 60); settings: dose 100 μg, 13 hours post injection
Protocol: Mice were intramuscularly or subcutaneously injected with 50 μl of the modified human EPO mRNA (h-EPO), modified luciferase mRNA (Luc) or the formulation buffer (F.Buffer) as described in the dosing chart Table 60. 13 hours post injection blood was collected and serum was analyzed to determine the amount human EPO for each mouse or rat.

[3] = test system: mice; assay: Example 42A: G-CSF/EPO mRNA in buffer IM in mice, serum protein at 13 hours (Table 67); settings: IM 100 ug
Protocol: The mice were bled at 13 hours after the injection to determine the concentration of the human polypeptide in serum in pg/mL (G-CSF groups measured human G-CSF in mouse serum and EPO groups measured human EPO in mouse serum).

[4] = test system: mice; assay: Example 65: G-CSF/EPO mRNA in saline in mice, serum protein at 13 hours (Table 97); settings: 100 ug, 100 μl/mouse, F. buffer, 13 hours after injection
Protocol: The mice were bled at 13 hours after the injection to determine the concentration of the human polypeptide in serum in pg/mL. (G-CSF groups measured human G-CSF in mouse serum and EPO groups measured human EPO in mouse serum).

For “Luciferase: luciferase mRNA, SEQ ID NO: 14, Cap1, fully modified with 5-methylcytosine and pseudouridine”, the “human EPO in serum, Avg.” value [1] was 24.5 pg/mL, the “human EPO in serum, Geometric-mean” value [1] was 22.4 pg/mL and the “Average Level in serum (human EPO)” value ([2]; mice IM) was 0 pg/mL. For the same substance, the “Average Level in serum (human EPO)” value ([2]; mice SC) was 26.7 pg/mL, the “Average Protein Product, serum” value ([3]; EPO group: human EPO in mouse serum) was 15.0 pg/mL and the “Average Protein Product, serum” value ([3]; G-CSF group: human G-CSF in mouse serum) was 0.5 pg/mL. The “Average Protein Product, serum (human EPO)” value ([4]; EPO group) was 26.7 pg/mL and the “Average Protein Product, serum (human G-CSF)” value ([4]; G-CSF group) was 0 pg/mL.
